# Patent publication US5397705A, “Multiply mutated subtilisins” (Amgen Inc., priority 1992, dated 1995)
# Substitutions are numbered along the chain they refer to. Where a SMILES comes first, the peptide text is derived from it.
# B1: Bacillus subtilis aprA subtilisin analog [Asp^76, Ser^109, Ser^218] (Asn76Asp, Asn109Ser, Asn218Ser) (Bacillus subtilis subsp. subtilis str. 168; … (protein)
# chain: AQSVPYGISQIKAPALHSQGYTGSNVKVAVIDSGIDSSHPDLNVRGGASFVPSETNPYQDGSSHGTHVAGTIAALDNSIGVLGVAPSASLYAVKVLDSTGSGQYSWIISGIEWAISNNMDVINMSLGGPTGSTALKTVVDKAVSSGIVVAAAAGNEGSSGSTSTVGYPAKYPSTIAVGAVNSSNQRASFSSAGSELDVMAPGVSIQSTLPGGTYGAYSGTSMATPHVAGAAALILSKHPTWTNAQVRDRLESTATYLGNSFYYGKGLINVQAAAQ
# notes: made in house; host or cells: Bacillus subtilis (plasmid pAMB131)
# B2: Bacillus subtilis aprA subtilisin analog [Asp^76, Ser^109, Ser^218, Ala^222] (Asn76Asp, Asn109Ser, Asn218Ser, Met222Ala) (Bacillus subtilis subsp. subtilis … (protein)
# chain: B1 chain with M222A
# notes: made in house; host or cells: Bacillus host cells (plasmid pAMB143)
# Columns and labels:
# Assay in all cases: Kinetics of hydrolysis of succinyl Ala-Ala-Pro-Phe-para-nitroanilide by the subtilisin analog
# [1] = target: T1, Bacillus subtilis aprA subtilisin analog [Asp^76, Ser^109, Ser^218] (Asn76Asp, Asn109Ser, Asn218Ser) (Bacillus subtilis, UniProt P04189, N182D/N215S/N324S); type: biochemical; settings: substrate succinyl Ala-Ala-Pro-Phe-para-nitroanilide
# T1 construct: made in house; host or cells: Bacillus subtilis (plasmid pAMB131)
# T1 sequence (P04189 107-381 N182D/N215S/N324S): B1 chain
# From the text: (§1) As mentioned earlier, analog [Asp^76, Ser^109, Ser^218, Ala^222 ] has a lower specific activity toward azocasein than analog [Asp^76, Ser^109, Ser^218 ], with an approximate Vm of 0.02 dA/(min-mg/ml) versus 0.08 dA/(min-mg/ml) for [Asp^76, Ser^109, Ser^218 ]. To see if this decreased activity was specific for azocasein, or a general characteristic of the [Asp^76, Ser^109, Ser^218, Ala^222 ] analog, the kinetics of the hydrolysis of the artificial peptide succinyl Ala-Ala-Pro-Phe-para-nitroanilide was analyzed for [Asp^76, Ser^109, Ser^218, Ala^222 ] and [Asp^76, Set^109, Ser^218 ]. […] This specific activity is 4-fold less than that of aprA-subtilisin. The catalytic Ser is at position 221, and it appears that substitutions at position 222 interfere with substrate binding as well as with the rate limiting step of proteolysis.
# [2] = target: T2, Bacillus subtilis aprA subtilisin analog [Asp^76, Ser^109, Ser^218, Ala^222] (Asn76Asp, Asn109Ser, Asn218Ser, Met222Ala) (Bacillus subtilis, UniProt P04189, M328A/N182D/N215S/N324S); type: biochemical; settings: substrate succinyl Ala-Ala-Pro-Phe-para-nitroanilide
# T2 construct: made in house; host or cells: Bacillus host cells (plasmid pAMB143)
# T2 sequence (P04189 107-381 N182D/N215S/N324S/M328A): B1 chain with M222A
# From the text: as §1
# [3] = substrate: C[C@H](NC(=O)CCC(=O)O)C(=O)N[C@@H](C)C(=O)N1CCC[C@H]1C(=O)N[C@@H](Cc1ccccc1)C(=O)Nc1ccc([N+](=O)[O-])cc1; type: biochemical, Bacillus subtilis; settings: other: substrate succinyl Ala-Ala-Pro-Phe-para-nitroanilide
# From the text: as §1
molecule,measurement,setting,value
C[C@H](NC(=O)CCC(=O)O)C(=O)N[C@@H](C)C(=O)N1CCC[C@H]1C(=O)N[C@@H](Cc1ccccc1)C(=O)Nc1ccc([N+](=O)[O-])cc1 [succinyl-L-alanyl-L-alanyl-L-prolyl-L-phenylalanyl-p-nitroanilide] (HELM PEPTIDE1{[O=C(O)CCC(=O)[*:2]].A.A.P.F.[O=[N+]([O-])c1ccc(N[*:1])cc1]}$$$$V2.0),Vmax,[1],7.9 dA/(min-nmole)
same,Vmax,[2],1.1 dA/(min-nmole)
B1,Km,"[3]; analog [Asp^76, Ser^109, Ser^218]",440 µM
B2,Km,"[3]; analog [Asp^76, Ser^109, Ser^218, Ala^222]",1400 µM
